Laboratory results taken from PubChem BioAssay AID1919017 (Molecular Pharmacology Branch, DTP, NCI, 2023).

Test system: SW1271 complex spheroids with HUVEC/MSC, growth, % test/control
Assay: Anticancer human tumor SW1271 cell line growth inhibition [AhR];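 also: spheroids exposed to agents for 7 days before readout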
Conditions: for IC50: curve of first compound; for viability, T/C: stronger effect = lower value
Excerpt: Multicellular complex tumor spheroid response to aryl hydrocarbon receptor antagonists in combination with a variety of drugs and investigational agents in selected tumor cell lines
The current study was undertaken to assess response to aryl hydrocarbon receptor antagonists in combination with standard-of-care drugs and investigational agents in solid tumor complex spheroid models. Complex spheroids include a stromal component modeled by human endothelial cells (HUVEC) and fibroblasts modeled by human mesenchymal stem cells (MSCs). The concentration ranges selected for each drug and investigational agent were based upon clinically achievable concentrations if the clinical Cmax of the agent was known.
Compounds. The drugs and investigational agents: BAY 2416964 (NSC825713), GNF351 (NSC835774), CH-223191 (NSC835775), CPI-455 (NSC825282), aza-TdCyd (NSC777586), decitabine (NSC127716), belinostat (NSC758774), entinostat (NSC756642), pevonedistat (NSC761192), tazemetostat (NSC777109), talazoparib (NSC765396), olaparib (NSC753686), selinexor (NSC780203), nedisertib (M3814, NSC802822), bortezomib (NSC756655), venetoclax (NSC766270), doxorubicin (NSC123127), elimusertib (BAY189344, NSC800525), ceralasertib (AZD6738, NSC777638), TAK-243 (NSC785004), alisertib (NSC759677), etoposide (NSC141540), topotecan (NSC609699), eribulin (NSC707389), gemcitabine (NSC613327), carboplatin (NSC241240), cisplatin (NSC119875), and SN-38 (NSC673596) were obtained from the National Cancer Institute (NCI) Developmental Therapeutics Program Chemical Repository (32). The FDA-approved anticancer drug set is available from the Developmental Therapeutics Program at https://dtp.cancer.gov/organization/dscb/obtaining/available plates.htm. […] The stock solutions were prepared in dimethyl sulfoxide (DMSO, Sigma-Aldrich, St. Louis, MO, cat. D2650), except for the platinum compounds which were prepared in saline (Quality Biological, Gaithersburg, MD, cat. 114-055-101), at 800-fold the tested concentration and stored at -70 degrees C prior to their use. All drugs and investigational agents were tested over a range starting from a high concentration at or near the clinical Cmax and decreasing in half-log increments. If the clinical Cmax for an agent had not been determined, the highest concentration tested was 10 microM (Table 1).
Cell Culture. All cells were maintained in an incubator at 37 degrees C and 5% CO2 with 95% humidity. The PDC lines were cultured according to standard operating procedures established by the NCI PDMR (https://pdmr.cancer.gov). Briefly, all PDCs were thawed and cultured in Matrigel-coated flasks prepared with a working solution of 1X Ham's F-12 nutrient mix, without supplementation (Invitrogen, Waltham, MA, cat. 11765054), 100 U/mL penicillin-streptomycin (Invitrogen, cat. 15140122), and 2.5% Matrigel (Corning Inc., Corning, NY, cat. 354248) for the first three passages. All PDCs were cultured in complete DMEM/F-12 media containing advanced DMEM/F-12 (Invitrogen, cat. 12634028), 4.9% defined fetal bovine serum, heat inactivated (HyClone Laboratories Inc., Logan, UT, cat. SH30070.03HI), 389 ng/mL hydrocortisone (Sigma-Aldrich, cat. H4001), 9.7 ng/mL human EGF recombinant protein (Invitrogen, cat. PHG0313), 23.4 microg/mL adenine (Sigma-Aldrich, cat. A2786), 97.3 U/mL penicillin-streptomycin (Invitrogen, cat. 15140122), 1.9 mM L-glutamine (Invitrogen, cat. 25030081), and 9.7 microM Y-27632 dihydrochloride (Tocris Bioscience, Bristol, United Kingdom, cat. 1254). The PDCs were cultured in complete DMEM/F12 media without 10 microM Y-27632 dihydrochloride for at least two passages prior to the screen. The established cell lines NCI-H1341 and […] were cultured in DMEM/F-12, HEPES (Invitrogen, cat. 11330032), 5% defined fetal bovine serum (HyClone Laboratories Inc., cat. SH30070.03), ITS premix universal culture supplement [insulin (5 microg/mL), transferrin (5 microg/mL), and selenious acid (5 ng/mL)] […]

Compound: CC(C)CC(NC(=O)C(Cc1ccccc1)NC(=O)c1cnccn1)B(O)O (stereo not given) + Cc1cncc(-c2nc(NCCc3c[nH]c4ccccc34)c3ncn(C(C)C)c3n2)c1
- IC50 (second compound 0.1 µM): 6.11 nM
- IC50 (second compound 0.316 µM): 5.7 nM
- IC50 (second compound 1 µM): 6.18 nM
- IC50 (second compound 3.16 µM): 5.61 nM
- IC50 (second compound 10 µM): 3.96 nM
- viability, T/C (second compound 0.1 µM, first compound 0.000949 µM): 122%
- viability, T/C (second compound 0.1 µM, first compound 0.003 µM): 112%
- viability, T/C (second compound 0.1 µM, first compound 0.00949 µM): 11.9%
- viability, T/C (second compound 0.1 µM, first compound 0.03 µM): 0.91%
- viability, T/C (second compound 0.1 µM, first compound 0.0949 µM): 0.33%
- viability, T/C (second compound 0.1 µM, first compound 0.3 µM): 0.46%
- viability, T/C (second compound 0.316 µM, first compound 0.000949 µM): 84.3%
- viability, T/C (second compound 0.316 µM, first compound 0.003 µM): 113%
- viability, T/C (second compound 0.316 µM, first compound 0.00949 µM): 11.3%
- viability, T/C (second compound 0.316 µM, first compound 0.03 µM): 0.73%
- viability, T/C (second compound 0.316 µM, first compound 0.0949 µM): 0.67%
- viability, T/C (second compound 0.316 µM, first compound 0.3 µM): 0.41%
- viability, T/C (second compound 1 µM, first compound 0.000949 µM): 113%
- viability, T/C (second compound 1 µM, first compound 0.003 µM): 112%
- viability, T/C (second compound 1 µM, first compound 0.00949 µM): 13.4%
- viability, T/C (second compound 1 µM, first compound 0.03 µM): 1.13%
- viability, T/C (second compound 1 µM, first compound 0.0949 µM): 0.75%
- viability, T/C (second compound 1 µM, first compound 0.3 µM): 0.48%
- viability, T/C (second compound 3.16 µM, first compound 0.000949 µM): 107%
- viability, T/C (second compound 3.16 µM, first compound 0.003 µM): 102%
- viability, T/C (second compound 3.16 µM, first compound 0.00949 µM): 5.96%
- viability, T/C (second compound 3.16 µM, first compound 0.03 µM): 0.63%
- viability, T/C (second compound 3.16 µM, first compound 0.0949 µM): 0.88%
- viability, T/C (second compound 3.16 µM, first compound 0.3 µM): 0.55%
- viability, T/C (second compound 10 µM, first compound 0.000949 µM): 62.2%
- viability, T/C (second compound 10 µM, first compound 0.003 µM): 69.2%
- viability, T/C (second compound 10 µM, first compound 0.00949 µM): 0.81%
- viability, T/C (second compound 10 µM, first compound 0.03 µM): 0.31%
- viability, T/C (second compound 10 µM, first compound 0.0949 µM): 0.34%
- viability, T/C (second compound 10 µM, first compound 0.3 µM): 0.3%

Compound: CC1COCCN1c1cc(C2(S(C)(=N)=O)CC2)nc(-c2ccnc3[nH]ccc23)n1 (stereo not given) + Cc1ccccc1N=Nc1ccc(NC(=O)c2ccnn2C)c(C)c1
- IC50 (second compound 0.1 µM): > 10000 nM
- IC50 (second compound 0.316 µM): > 10000 nM
- IC50 (second compound 1 µM): > 10000 nM
- IC50 (second compound 3.16 µM): > 10000 nM
- IC50 (second compound 10 µM): > 10000 nM
- viability, T/C (second compound 0.1 µM, first compound 0.0316 µM): 87.6%
- viability, T/C (second compound 0.1 µM, first compound 0.1 µM): 105%
- viability, T/C (second compound 0.1 µM, first compound 0.316 µM): 90.8%
- viability, T/C (second compound 0.1 µM, first compound 1 µM): 119%
- viability, T/C (second compound 0.1 µM, first compound 3.16 µM): 89.4%
- viability, T/C (second compound 0.1 µM, first compound 10 µM): 52.5%
- viability, T/C (second compound 0.316 µM, first compound 0.0316 µM): 100%
- viability, T/C (second compound 0.316 µM, first compound 0.1 µM): 95.2%
- viability, T/C (second compound 0.316 µM, first compound 0.316 µM): 96.9%
- viability, T/C (second compound 0.316 µM, first compound 1 µM): 106%
- viability, T/C (second compound 0.316 µM, first compound 3.16 µM): 67.6%
- viability, T/C (second compound 0.316 µM, first compound 10 µM): 58.8%
- viability, T/C (second compound 1 µM, first compound 0.0316 µM): 96.8%
- viability, T/C (second compound 1 µM, first compound 0.1 µM): 111%
- viability, T/C (second compound 1 µM, first compound 0.316 µM): 106%
- viability, T/C (second compound 1 µM, first compound 1 µM): 89.6%
- viability, T/C (second compound 1 µM, first compound 3.16 µM): 90.4%
- viability, T/C (second compound 1 µM, first compound 10 µM): 56.7%
- viability, T/C (second compound 3.16 µM, first compound 0.0316 µM): 97.5%
- viability, T/C (second compound 3.16 µM, first compound 0.1 µM): 112%
- viability, T/C (second compound 3.16 µM, first compound 0.316 µM): 104%
- viability, T/C (second compound 3.16 µM, first compound 1 µM): 96.7%
- viability, T/C (second compound 3.16 µM, first compound 3.16 µM): 70%
- viability, T/C (second compound 3.16 µM, first compound 10 µM): 61.1%
- viability, T/C (second compound 10 µM, first compound 0.0316 µM): 102%
- viability, T/C (second compound 10 µM, first compound 0.1 µM): 91.8%
- viability, T/C (second compound 10 µM, first compound 0.316 µM): 104%
- viability, T/C (second compound 10 µM, first compound 1 µM): 95.4%
- viability, T/C (second compound 10 µM, first compound 3.16 µM): 68.1%
- viability, T/C (second compound 10 µM, first compound 10 µM): 54.9%
